Measurements published in the NIST ThermoML archive (doi:10.1016/j.tca.2008.02.023).

Experiment: excess molar enthalpy (molar enthalpy of mixing); xn = mol fraction of the nth substance listed
Conditions: 101 kPa, Liquid, Calvet calorimetry

[Bi] [bismuth] + [Cu]
Conditions | excess molar enthalpy [kJ/mol]
1073.2 K, x2 = 0.0427 | 0.813
1073.2 K, x2 = 0.0749 | 1.41
1073.2 K, x2 = 0.0819 | 1.5
1073.2 K, x2 = 0.1184 | 2.06
1073.2 K, x2 = 0.1417 | 2.44
1073.2 K, x2 = 0.1524 | 2.52
1073.2 K, x2 = 0.1852 | 2.92
1073.2 K, x2 = 0.2051 | 3.19
1073.2 K, x2 = 0.216 | 3.23
1073.2 K, x2 = 0.2446 | 3.49
1073.2 K, x2 = 0.2648 | 3.71
1073.2 K, x2 = 0.2722 | 3.73
1073.2 K, x2 = 0.2982 | 3.92
1073.2 K, x2 = 0.3165 | 4.07
1073.2 K, x2 = 0.3228 | 4.08
1073.2 K, x2 = 0.3461 | 4.19
1073.2 K, x2 = 0.3622 | 4.26
1073.2 K, x2 = 0.3683 | 4.28
1073.2 K, x2 = 0.3893 | 4.35
1073.2 K, x2 = 0.4032 | 4.34
1273.2 K, x2 = 0.1194 | 2.07
1273.2 K, x2 = 0.2184 | 3.52
1273.2 K, x2 = 0.2984 | 4.34
1273.2 K, x2 = 0.3648 | 4.8
1273.2 K, x2 = 0.4198 | 5.05
1273.2 K, x2 = 0.47 | 5.15
1273.2 K, x2 = 0.5122 | 5.17
1273.2 K, x2 = 0.5486 | 5.12
1273.2 K, x2 = 0.5801 | 5.04
1273.2 K, x2 = 0.6078 | 4.95
1273.2 K, x2 = 0.632 | 4.84
1273.2 K, x2 = 0.6535 | 4.72
1273.2 K, x2 = 0.673 | 4.59
1273.2 K, x2 = 0.6904 | 4.46
1273.2 K, x2 = 0.7077 | 4.34
1273.2 K, x2 = 0.724 | 4.22
1273.2 K, x2 = 0.7393 | 4.12
1273.2 K, x2 = 0.7532 | 4
1273.2 K, x2 = 0.7659 | 3.87
1273.2 K, x2 = 0.7773 | 3.75
1273.2 K, x2 = 0.7884 | 3.65
1273.2 K, x2 = 0.7985 | 3.6
1273.2 K, x2 = 0.8078 | 3.46
1273.2 K, x2 = 0.8164 | 3.35
1273.2 K, x2 = 0.8244 | 3.25
